Columns and labels:
[1] = system: mouse islets; assay: GSIS assay in mouse islets; format: cell-based; settings: 16.7 mM glucose
Experimental: (§1) Mouse islets were isolated and tested for stimulation of GSIS as described. Human islets were purchased from Prodo labs or were obtained from the National Institutes of Health and Juvenile Diabetes Research Foundation supported Islet Cell Resource Consortium (http://icr.coh.org). Islet inositol phosphate assays were performed on islets cells that had been dispersed with trypsin. 10,000 islet cells were plated/well of a 96-well plate and were loaded with ^3H-myo-inositol (0.5 µCi/well) in RPMI overnight prior to treatment. The next day, response to different stimuli was tested in HBSS containing 10 mM LiCl and 0.1% HSA (w/v) for 1 hour at 37°C. Accumulated ^3H-inositol phosphate was measured after capture to SPA beads. Islet perifusion experiments were performed on mouse islets loaded into a Brandel Suprafusion system. Twenty islets were size-matched and loaded per perifusion chamber. Islets were perifused in KRBH containing, sequentially, 3 mM glucose, then 3 mM glucose containing 10 µM drug, 16.7 mM glucose containing 10 µM drug and finally returned to 3 mM glucose containing 10 µM drug. Insulin was measured using an insulin ELISA kit (Alpco). Fetal rat intestinal cells were isolated from e19-day old fetuses of pregnant Sprague-Dawley rats. Briefly, fetal intestines were isolated and digested in HBSS buffer containing 0.5 mg/ml collagenase (Sigma), 0.5 mg/ml of hyaluronidase (Sigma) and 0.05 mg/ml of deoxyribonuclease I (Roche) for 30 minutes at 37°C. The digestion was quenched using HBSS containing 15% FBS. Fetal rat intestinal cells were washed and cultured overnight in DMEM containing 5% FBS in 96-well plates. To test for secretion of GLP-1 and GIP in response to treatments, we incubated cells for 1 hour with treatments in KRBH buffer containing 0.05% BSA (w/v). GLP-1 and GIP1 secreted into the media was measured using ELISA kits specific for GLP-1 (Linco) or GIP (Millipore).

[2] = system: islets isolated from GPR40 knockout mice; assay: GSIS assay with islets from GPR40 knock-out mice; format: cell-based, mouse
Experimental: as §1

[3] = system: C57/Bl6 mice; assay: IPGTT in C57BL/6j mice with or without GLP-1R antagonist Ex(9-39)NH2; format: in vivo, mouse
Experimental: An intraperitoneal rather than oral glucose challenge was performed in order to bypass the incretin effect of an oral glucose administration.
IPGTT experiments with Ex(9–39)NH2 (Bachem) were performed with male C57BL/6j (n = 6–7/group) at 26-weeks of age. Ex(9–39)NH2 was formulated in PBS containing 0.1%BSA and dosed ip at 300 µg/kg.
(§2) For all glucose tolerance tests, glucose and insulin measurements were taken from tail vein samples at various time-points. Blood glucose values were measured on an Accu-Chek glucometer (Roche Diagnostics), while insulin levels were determined using an ELISA (Alpco).

[4] = system: HF/STZ mice; assay: OGTT in high-fat fed, streptozotocin-treated (HF/STZ) type 2 diabetic mice; format: in vivo, mouse; settings: OGTT; for Glucose AUC improvement: 1 hour before glucose
Experimental: (§3) All procedures on animals were approved by the Amgen San Francisco Institutional Animal Care and Use Committee (approved protocols #11–04 and #2007–00106). The Amgen San Francisco vivarium is an AAALAC accredited facility. Animals were housed under a 12-h light, 12-h dark cycle (lights-on 0600 h and lights-off 1800 h) and were allowed ad libidum access to chow and water. The HF/STZ mice were established as previously described. Briefly, C57BL/6j mice (Jackson labs) at 4 weeks of age were fed a high-fat diet (BioServ S1850, 35% fat) for 3-weeks and then injected with 95 mg/kg streptozotocin (Sigma) ip to induce beta cell dysfunction. The animals continued on the same high fat diet for 3–6 additional weeks. Animals were then randomized into treatment groups based on fasting blood glucose and insulin measures. NONcNZO10/LtJ (RCS10) male mice (Jackson labs) were used at 12-weeks of age and randomized for treatment based on fasting glucose levels. For OGTT experiments, drugs were formulated in 1% HPMC, 10% HPbCD, 1% Tween-80 and dosed via oral gavage. Glucose was administered at 2 g/kg 1-hour post drug dose by oral gavage.
as §2

[5] = system: wild type and GPR40 knockout mice; assay: OGTT and GLP-1 secretion in wild type and GPR40 null mice; format: in vivo, mouse; settings: wild type mice
Experimental: as §3, §2

[6] = biological target: PPAR delta (Homo sapiens, UniProt Q03181); assay: PPAR-delta luciferase reporter assay; format: cell-based; settings: concentrations up to 10 µM
Chain of PPAR delta (Q03181 whole entry): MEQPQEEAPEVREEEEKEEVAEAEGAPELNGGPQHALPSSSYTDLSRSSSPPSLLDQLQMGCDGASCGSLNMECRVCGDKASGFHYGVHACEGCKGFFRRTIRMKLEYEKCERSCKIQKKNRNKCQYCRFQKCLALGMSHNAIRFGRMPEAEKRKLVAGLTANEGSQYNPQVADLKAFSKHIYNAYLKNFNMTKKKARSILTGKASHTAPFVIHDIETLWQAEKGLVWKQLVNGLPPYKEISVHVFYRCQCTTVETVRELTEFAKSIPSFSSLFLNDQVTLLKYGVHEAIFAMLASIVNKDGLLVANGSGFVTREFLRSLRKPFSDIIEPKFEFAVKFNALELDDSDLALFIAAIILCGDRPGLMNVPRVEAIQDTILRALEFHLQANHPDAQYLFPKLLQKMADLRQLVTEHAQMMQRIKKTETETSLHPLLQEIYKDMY

[7] = system: GLUTag cells; assay: Inositol phosphate accumulation assay in GLUTag enteroendocrine L-cell line; format: cell-based, mouse
Experimental: Increased GLP-1 and GIP would be expected to have additional benefits in type 2 diabetics. […] We tested for potential effects on incretin secretion in vitro by using cells isolated from fetal rat intestines.
(§4) GPR40 aequorin, plasmid titration, and inositol phosphate assays were performed as described. For aequorin assays, in addition to transient transfection of GPR40 into CHO cells, a CHO cell line stably expressing both GPR40 and aequorin was generated. GLUTag cells were obtained under a license from Dr. Daniel Drucker, University of Toronto. Competition binding experiments were performed using membranes prepared from A9_GPR40 cells. […] Competition binding assays were carried out in 20 mM Hepes pH 7.5, 5 mM MgCl2, 100 mM NaCl and 0.1% (w/v) free fatty acid BSA and bound radioligand was collected on 96-well GF/C filter plates.

[8] = biological target: T1, GPR40 (Homo sapiens, UniProt O14842); assay: Inositol phosphate accumulation assay in A9 cells stably expressing GPR40 (A9_GPR40); format: cell-based; settings: inositol phosphate assay
T1 construct: expressed in transfected cells; host or cells: CHO cell line stably expressing GPR40 and aequorin
T1 sequence (O14842 whole entry): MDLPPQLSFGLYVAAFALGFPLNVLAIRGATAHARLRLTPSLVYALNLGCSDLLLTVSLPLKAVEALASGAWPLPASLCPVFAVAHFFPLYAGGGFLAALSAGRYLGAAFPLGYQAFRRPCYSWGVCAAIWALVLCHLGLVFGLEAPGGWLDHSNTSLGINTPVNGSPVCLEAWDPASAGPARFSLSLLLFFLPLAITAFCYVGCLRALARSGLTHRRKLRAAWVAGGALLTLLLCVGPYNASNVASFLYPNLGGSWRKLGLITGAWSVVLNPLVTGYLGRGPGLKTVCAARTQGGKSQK
Experimental: as §4
(A) Structure of selected GPR40 agonists. (B) GPR40 agonists were tested in parallel in vitro in an inositol phosphate accumulation assay in A9 cells stably expressing GPR40. (TIF) Click here for additional data file.

[9] = system: human islet cells; assay: Inositol phosphate assay with dispersed human islet cells; format: cell-based
Experimental: as §1, with “Briefly, fetal intestines were isolated and digested in HBSS buffer containing 0.5 mg/ml collagenase (Sigma), 0.5 mg/ml of hyaluronidase (Sigma) and 0.05 mg/ml of deoxyribonuclease I (Roche) for 30 minutes at 37°C. The digestion was quenched using HBSS containing 15% FBS. Fetal rat intestinal cells were washed and cultured overnight in DMEM containing 5% FBS in 96-well plates. To test for secretion of GLP-1 and GIP in response to treatments, we incubated cells for 1 hour with treatments in KRBH buffer containing 0.05% BSA (w/v).” left out

[10] = Unbound plasma drug concentration in HF/STZ mice; format: in vivo; settings: C57BL/6j, mouse, 100 mg/kg oral, 1-hour post drug administration, by MS, read-out: free drug level in plasma
[11] = biological target: mouse GPR40 (Mus musculus, UniProt Q76JU9); assay: Mouse GPR40 inositol phosphate accumulation assay; format: cell-based
Chain of mouse GPR40 (Q76JU9 whole entry): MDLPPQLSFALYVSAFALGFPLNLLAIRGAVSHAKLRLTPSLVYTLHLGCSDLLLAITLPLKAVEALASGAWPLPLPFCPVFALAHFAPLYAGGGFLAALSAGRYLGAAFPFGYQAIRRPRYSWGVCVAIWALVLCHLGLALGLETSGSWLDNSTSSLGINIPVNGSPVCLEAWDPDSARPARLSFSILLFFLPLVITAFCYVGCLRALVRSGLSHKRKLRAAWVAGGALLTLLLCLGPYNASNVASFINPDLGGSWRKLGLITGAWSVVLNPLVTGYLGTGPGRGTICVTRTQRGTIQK
Experimental: as §4

[12] = rat, mouse, beagle dog and cynomolgus monkey; cited from earlier work

COc1ccc(F)c(-c2ccc(COc3cccc([C@@H](CC(=O)O)C4CC4)c3)cc2C2=CCCC2(C)C)c1 [AM-1638]
increase of insulin secretion, fold from that of AMG 837 [1]: 3–4 fold
EC50 ([1]; read-out: EC50 for potentiation of insulin secretion): 990 ± 150 nM
GSIS response of GPR40 knockout islets [2]: did not respond
Glucose AUC reduction ([3]; AM-1638 60 mg/kg alone): ~53%
Glucose AUC reduction ([3]; AM-1638 60 mg/kg in the presence of exendin(9-39)NH2 300 µg/kg ip): ~25%
Glucose AUC improvement ([4]; 10 mg/kg oral): 15%
Glucose AUC improvement ([4]; 30 mg/kg oral): 23%
Glucose AUC improvement ([4]; 60 mg/kg oral): 35%
Glucose AUC improvement ([4]; 100 mg/kg oral): 48%
insulin secretion, fold greater than AMG 837 ([4]; higher doses): 1.5–2.2 fold
improvement in pre- and post-challenge glucose levels ([5]; OGTT, single oral dose): evident in wild type
plasma GLP-1 levels ([5]; single dose 100 mg/kg): elicited an increase
activation of PPAR delta [6]: did not activate
inositol phosphate accumulation, fold increase compared to AMG 837 [7]: 3–4 fold
intrinsic activity, fold greater than AMG 837 [8]: ~2 fold
EC50 ([8]; 1-hour accumulation, read-out: Half-maximal potency): 13.1 ± 1.1 nM
IP production efficacy, fold greater than AMG 837 [9]: 8–10 ×
concentration at 1 h [10]: 363 ± 48 nM
EC50 [11]: 12.9 ± 1.4 nM
pharmacokinetic properties [12]: suitable for oral dosing

Reference: publication PMC3467217, “A Potent Class of GPR40 Full Agonists Engages the EnteroInsular Axis to Promote Glucose Control in Rodents” (PLoS ONE, 2012)
